Publication PMC3534310, “Peptide-Modulated Activity Enhancement of Acidic Protease Cathepsin E at Neutral pH” (International Journal of Peptides, 2012)
Peptide text beside a SMILES is read from it.

Experiments:
cathepsin E [1] = molecular target: T1, cathepsin E (Rattus norvegicus, UniProt P16228); test: Affinity determination by SPR (Biacore2000); type: binding; conditions: cathepsin E immobilized on CM5 chip, peptide 10-40 nM, running buffer pH 7.4, 1:1 Langmuir fit
T1 construct: Cathepsin E was isolated from rat spleens as previously described; from tissue; host or cells: rat spleen
T1 sequence (P16228 59-398): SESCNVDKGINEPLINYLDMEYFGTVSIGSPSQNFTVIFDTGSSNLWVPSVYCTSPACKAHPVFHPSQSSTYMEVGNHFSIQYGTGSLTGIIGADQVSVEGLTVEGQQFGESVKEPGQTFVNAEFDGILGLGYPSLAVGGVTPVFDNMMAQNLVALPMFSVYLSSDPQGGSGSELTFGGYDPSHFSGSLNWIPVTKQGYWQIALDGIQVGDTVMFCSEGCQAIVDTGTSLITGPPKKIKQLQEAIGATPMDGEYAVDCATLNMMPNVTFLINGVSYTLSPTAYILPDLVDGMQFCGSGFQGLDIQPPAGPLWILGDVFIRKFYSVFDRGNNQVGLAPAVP
Method: (§1) Cathepsin E was isolated from rat spleens as previously described. The fluorogenic substrate for cathepsin E at neutral pH (pH 7.4) was the same as previously reported. The fluorogenic substrate (10 mM) was prepared by dissolving in 100% DMSO and diluting in reaction buffer immediately before use.
The dissociation constant (K d) of each selected peptide with cathepsin E was determined by the SPR method using a Biacore2000 (GE Healthcare, UK). Cathepsin E was immobilized on a CM5 Biacore sensor chip (GE Healthcare, UK) by the general amine coupling method. A small quantity of acetate buffer (50 mM sodium acetate, 100 mM NaCl, pH 4.5) containing cathepsin E (150 μg/mL) was injected into the flow cell for the sample lane. The reference lane was prepared similarly but without cathepsin E. Different concentrations (10, 20, 30, and 40 nM) of the selected peptide candidates, T4 and T11 were injected into both lanes at a flow rate of 20 ul/min to measure the interaction between cathepsin E and each peptide candidate. For all experiments, a neutral pH buffer (50 mM Tris-HCl, 100 mM NaCl, pH 7.4) was used as the running buffer and a solution of 50 mM NaOH was used to remove the peptides. The resulting sensorgram curves were fit to a 1 : 1 Langmuir binding model, and the K d values were calculated using BIA evaluation software (GE Healthcare, UK).

cathepsin E [2] = molecular target: T1, cathepsin E; test: Cathepsin E protease activity assay (fluorogenic substrate, neutral pH); type: biochemical; conditions: 20 nM cathepsin E + 20 nM peptide; for Activity (%), value in parentheses: Table 2, value in parentheses
Method: as §1
Activation of cathepsin E by the selected peptides was determined as previously described. The selected peptides were prepared by in vitro translation or chemical synthesis. A solution containing 20 nM cathepsin E was pre incubated with 20 nM of selected peptides in Selection buffer (50 mM Tris-HCl, 100 mM NaCl, pH 7.4) at 25°C for 10 min. Next, the fluorogenic substrate was added (5 μM) and the mixture was incubated at 37°C for 1 h for the enzyme reaction. The fluorescent reaction product was monitored at 440 nm (excitation at 340 nm) using Infinite 200 (TECAN, Japan). The percent of cathepsin E activation (A) was calculated by: (1) A = 100×(Sf−Bf)/(Cf−Bf) [% activation], where S f was the fluorescence intensity of the cathepsin E reaction in the presence of a selected peptide, C f was the fluorescence intensity of the control in the absence of a selected peptide, and B f was background fluorescence of the solution containing the fluorogenic substrate only.

HeLa cells = test: HeLa cell death assay (Cell Counting Kit-F viability, Annexin V-Cy3 apoptosis); type: cell-based
Method: HeLa cells were used for an in vitro cell-based bioassay. Approximately 10,000 HeLa cells were seeded into the wells of a 96-well culture plate (Corning, USA) containing 100 uL of DMEM medium supplemented with 10% FBS and 2% penicillin-streptomycin and incubated overnight at 37°C under 5% CO2. The cells were treated with cathepsin E (77 nM) alone or together with two different concentrations (770 nM, 7.7 μM) of the selected peptide T11 in 100 μL of serum-free Opti-MEM at 37°C for 20 h. After incubation, viable cells were determined with a Cell Counting Kit-F (Dojindo Molecular Technologies, Japan) according to the manufacturer's protocol. Viable cells were identified by their fluorescent emissions intensity using an Infinite 200 (TECAN, Japan) with excitation at 490 nm and emission at 515 nm. To detect apoptotic cells, cells were treated with Annexin V-Cy3 (BioVision, USA) following the manufacturer's protocol. Apoptotic cells were detected by their fluorescent emissions with excitation at 543 nm and emission at 570 nm. To detect caspase-3/7 activity induced by cathepsin E, an Apo-ONE Homogeneous Caspase-3/7 Assay kit (Promega, USA) was used according to the manufacturer's protocol. Activity was detected by fluorescent emissions with excitation at 485 nm and emission at 530 nm. […]

[3] = tested on: caspase-3/7 activity in HeLa cells; test: Apo-ONE Homogeneous Caspase-3/7 assay in HeLa cells; type: cell-based; conditions: for Caspase-3/7 activity: three independent experiments
Method: HeLa cells were used for an in vitro cell-based bioassay. Approximately 10,000 HeLa cells were seeded into the wells of a 96-well culture plate (Corning, USA) containing 100 uL of DMEM medium supplemented with 10% FBS and 2% penicillin-streptomycin and incubated overnight at 37°C under 5% CO2. […] After incubation, viable cells were determined with a Cell Counting Kit-F (Dojindo Molecular Technologies, Japan) according to the manufacturer's protocol. Viable cells were identified by their fluorescent emissions intensity using an Infinite 200 (TECAN, Japan) with excitation at 490 nm and emission at 515 nm. To detect apoptotic cells, cells were treated with Annexin V-Cy3 (BioVision, USA) following the manufacturer's protocol. Apoptotic cells were detected by their fluorescent emissions with excitation at 543 nm and emission at 570 nm. To detect caspase-3/7 activity induced by cathepsin E, an Apo-ONE Homogeneous Caspase-3/7 Assay kit (Promega, USA) was used according to the manufacturer's protocol. Activity was detected by fluorescent emissions with excitation at 485 nm and emission at 530 nm. The cathepsin E and selected peptide concentrations used for apoptosis and caspase assays were the same as those used for cell viability assays.

peptide T4 = molecular target: T2, peptide T4; test: SPR
T2 chain: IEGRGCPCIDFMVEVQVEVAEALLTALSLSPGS

[4] = pH 7.4, 37°C 1 h, peptide by in vitro translation (italic) or chemical synthesis
[5] = Table 1, cathepsin E activity alone = 100%, pH 7.4, pre-incubation 25°C 10 min, 5 μM substrate, 37°C 1 h, peptide by in vitro translation (italics) or chemical synthesis
[6] = Table 2, value outside parentheses, pH 7.4, 37°C 1 h, peptide by in vitro translation (italic) or chemical synthesis

**Q.** With CC[C@H](C)[C@H](N)C(=O)N[C@@H](CCC(=O)O)C(=O)NCC(=O)N[C@@H](CCCNC(=N)N)C(=O)NCC(=O)N[C@@H](CS)C(=O)N1CCC[C@H]1C(=O)N[C@@H](CS)C(=O)N[C@H](C(=O)N[C@@H](CC(=O)O)C(=O)N[C@@H](Cc1ccccc1)C(=O)N[C@@H](CCSC)C(=O)N[C@H](C(=O)N[C@@H](CCC(=O)O)C(=O)N[C@H](C(=O)N[C@@H](CCC(N)=O)C(=O)N[C@H](C(=O)N[C@@H](CCC(=O)O)C(=O)N[C@H](C(=O)N[C@@H](C)C(=O)N[C@@H](CCC(=O)O)C(=O)N[C@@H](C)C(=O)N[C@@H](CC(C)C)C(=O)N[C@@H](CC(C)C)C(=O)N[C@H](C(=O)N[C@@H](C)C(=O)N[C@@H](CC(C)C)C(=O)N[C@@H](CO)C(=O)N[C@@H](CC(C)C)C(=O)N[C@@H](CO)C(=O)N1CCC[C@H]1C(=O)NCC(=O)N[C@@H](CO)C(=O)O)[C@@H](C)O)C(C)C)C(C)C)C(C)C)C(C)C)[C@@H](C)CC [Peptide T4] (H-IEGRGCPCIDFMVEVQVEVAEALLTALSLSPGS-OH) as the molecule, how does the Kd (cathepsin E [1]; read-out: dissociation constant (Kd) with cathepsin E) read?
**A.** 2 nM

**Q.** What about the “Activity (%), value in parentheses” value (cathepsin E [2]; [4]) of the same molecule?
**A.** 122%

**Q.** With GSPCIGII [Peptide S2] as the molecule, how does the “Activity (%)” value (cathepsin E [2]; [5]) read?
**A.** 133%

**Q.** With “IEGRLLSGGAGACSVRTVDDSFDCG [Peptide T11, paired peptide selected from the third library; chemically synthesized, more than 95% purity]” as the molecule, how does the “dissociation constant (Kd) with cathepsin E” value (cathepsin E [1]) read?
**A.** too weak to be determined

**Q.** And the “percentage of dying cells” value (HeLa cells; 77 nM cathepsin E with T11 (770 nM, 7.7 μM) versus without T11, 20 h (Figures 3a, 3b))?
**A.** significantly higher

**Q.** What about the effect on cells (HeLa cells; peptide alone (without cathepsin E)) of the same molecule?
**A.** no effect

**Q.** What about the “Activity (%), value in parentheses” value (cathepsin E [2]; [4]) of the same molecule?
**A.** 138%

**Q.** What about the Caspase-3/7 activity ([3]; 77 nM cathepsin E + 7.7 μM peptide T11, 24 h) of the same molecule?
**A.** 188%

**Q.** What about the Caspase-3/7 activation ([3]; T11 added without cathepsin E) of the same molecule?
**A.** not observed

**Q.** For IEGRVGCDFMYVG [Peptide S1], which “Activity (%)” value (cathepsin E [2]; [5]) is on record?
**A.** 130%

**Q.** How did the “Activity (%)” value (cathepsin E [2]; [5]) turn out when IGCEERSFPNIIIIIG [Peptide S8] was run?
**A.** 168%

**Q.** How did the “Activity (%)” value (cathepsin E [2]; [5]) turn out when PGIKIIIIG [Peptide S4] was run?
**A.** 151%

**Q.** With PGIKPPPCIIIIG [Peptide S10] as the molecule, how does the “Activity (%)” value (cathepsin E [2]; [5]) read?
**A.** 145%

**Q.** Which “Activity (%)” value (cathepsin E [2]; [6]) does the source give for “SDDKSTTLVEVQVEVAEELWRHYHYLLHG [Peptide T6, peptide selected from the paired peptide (third) library]” here?
**A.** 118%

**Q.** SGIKVGCDPPSCG [Peptide S9] was tested. Which “Activity (%)” value (cathepsin E [2]; [5]) did it give?
**A.** 140%

**Q.** SPIISHIVGCDPPSCG [Peptide S7] was tested. Which “Activity (%)” value (cathepsin E [2]; [5]) did it give?
**A.** 160%

**Q.** “SYKDSCIGGRGSGGGPGGIPGRIGYIG [Peptide T7, peptide selected from the paired peptide (third) library]” was tested. Which “Activity (%)” value (cathepsin E [2]; [6]) did it give?
**A.** 111%

B1: Cathepsin E (protein)
chain: SESCNVDKGINEPLINYLDMEYFGTVSIGSPSQNFTVIFDTGSSNLWVPSVYCTSPACKAHPVFHPSQSSTYMEVGNHFSIQYGTGSLTGIIGADQVSVEGLTVEGQQFGESVKEPGQTFVNAEFDGILGLGYPSLAVGGVTPVFDNMMAQNLVALPMFSVYLSSDPQGGSGSELTFGGYDPSHFSGSLNWIPVTKQGYWQIALDGIQVGDTVMFCSEGCQAIVDTGTSLITGPPKKIKQLQEAIGATPMDGEYAVDCATLNMMPNVTFLINGVSYTLSPTAYILPDLVDGMQFCGSGFQGLDIQPPAGPLWILGDVFIRKFYSVFDRGNNQVGLAPAVP
**Q.** Which Kd (peptide T4) does the source give for B1 here?
**A.** 2 nM

**Q.** And the Caspase-3/7 activity ([3]; 77 nM cathepsin E alone, 24 h)?
**A.** 155%
